Experimental data taken from ChEMBL document CHEMBL3046581, “Synthesis and cytotoxic activity of diaryl urea derivatives with a 4-methylpiperazinylcarbonyl moiety” (Med Chem Res, 2013).

What was measured:
[1] = system: PC-3; assay: Cytotoxicity against Homo sapiens (human) PC3 cells assessed as growth inhibition at 100 uM after 48 hr by MTT assay; assay type: functional; conditions: PC-3, 48 h, read-out: GI
[2] = system: A549; assay: Cytotoxicity against Homo sapiens (human) A549 cells assessed as growth inhibition at 100 uM after 48 hr by MTT assay; assay type: functional; conditions: A549, 48 h, read-out: GI
[3] = system: A549; assay: Cytotoxicity against Homo sapiens (human) A549 cells assessed as growth inhibition after 48 hr by MTT assay; assay type: functional, cell-based; conditions: for IC50: Homo sapiens, A549, 48 h
[4] = system: PC-3; assay: Cytotoxicity against Homo sapiens (human) PC3 cells assessed as growth inhibition after 48 hr by MTT assay; assay type: functional

| SMILES | inhibition of growth at 100 µM [1] | inhibition of growth at 100 µM [2] | IC50 [3] | growth inhibition (GI) [3] | growth inhibition (GI) [4] | growth inhibition (GI) ([3]; record 2) |
| --- | --- | --- | --- | --- | --- | --- |
| Cc1cc(NC(=O)Nc2ccc(C(=O)N3CCN(C)CC3)cc2)ccc1Cl | 35.1% | 27.5% | – | – | – | – |
| CN1CCN(C(=O)c2ccc(NC(=O)Nc3cccc(C(=O)N4CCCCC4)c3)cc2)CC1 | 31.1% | 19.7% | – | – | – | – |
| COc1cc(NC(=O)Nc2ccc(C(=O)N3CCN(C)CC3)cc2)cc(OC)c1 | 40% | 28.6% | – | – | – | – |
| CN1CCN(C(=O)c2ccc(NC(=O)Nc3ccc(OCc4cccc(F)c4)c(Cl)c3)cc2)CC1 | 82.7% | 74% | 10.8 µM | – | – | – |
| CN1CCN(C(=O)c2ccc(NC(=O)Nc3ccc(F)c(Cl)c3)cc2)CC1 | 29.9% | 28.4% | – | – | – | – |
| CN1CCN(C(=O)c2ccc(NC(=O)Nc3cccc(C(F)(F)F)c3)cc2)CC1 | 37.1% | 21.2% | – | – | – | – |
| CN1CCN(C(=O)c2ccc(NC(=O)Nc3ccc(F)c(F)c3)cc2)CC1 | 27.6% | 43.1% | – | – | – | – |
| C#Cc1cccc(NC(=O)Nc2ccc(C(=O)N3CCN(C)CC3)cc2)c1 | 49.3% | 45.4% | – | – | – | – |
| CN1CCN(C(=O)c2ccc(NC(=O)Nc3ccc(Cl)c(Cl)c3)cc2)CC1 | 28% | 36.5% | – | – | – | – |
| CN1CCN(C(=O)c2ccc(NC(=O)Nc3ccc(Cl)c(C(F)(F)F)c3)cc2)CC1 | 25.5% | 22.6% | – | – | – | – |
| CC(=O)Nc1nc2ccc(NC(=O)Nc3ccc(C(=O)N4CCN(C)CC4)cc3)cc2s1 | – | 93.5% | 0.57 µM | Dose-dependent effect | – | – |
| CNC(=O)c1cc(Oc2ccc(NC(=O)Nc3ccc(Cl)c(C(F)(F)F)c3)cc2)ccn1 [SORAFENIB] | – | – | 6.08 µM | Dose-dependent effect | 91.4% | 94.8% |
